Where two headings read alike, the source gives them in different places.
T1: PARLΔ77 (Homo sapiens, UniProt Q9H300)
T1 construct: GFP-hexahistidine (behind a TEV cleavage site) (C, cleaved yes); made in house; host or cells: Pichia pastoris
T1 sequence (Q9H300 78-379): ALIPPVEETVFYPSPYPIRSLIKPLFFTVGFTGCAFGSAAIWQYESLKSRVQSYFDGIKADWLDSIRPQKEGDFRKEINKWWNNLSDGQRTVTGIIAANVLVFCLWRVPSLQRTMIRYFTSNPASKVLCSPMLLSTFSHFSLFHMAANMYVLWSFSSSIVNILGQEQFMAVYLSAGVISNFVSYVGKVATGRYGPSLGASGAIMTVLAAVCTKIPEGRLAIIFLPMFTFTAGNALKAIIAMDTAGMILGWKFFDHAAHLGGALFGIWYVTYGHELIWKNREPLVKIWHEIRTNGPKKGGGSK


How the values were obtained:
PARLΔ77 [1] = molecular target: T1, PARLΔ77; assay: Multiplex substrate profiling by mass spectrometry (MSP-MS), PARLΔ77 in proteoliposomes; type: biochemical; conditions: PARLΔ77 1 μM in PL containing PC, PE and CL, peptides 0.5 μM each, pH 7.0, without DDM, LC-MS/MS, quadruplicate; for FC_60min (fold change of cleavage product, Annotated_Sequence): 60 vs 0 min; for FC_240min (fold change of cleavage product, Annotated_Sequence): 240 vs 0 min
Method: (§1) Multiplex substrate profiling by mass spectrometry (MSP-MS) assays was performed in quadruplicate. In total, 1 μM of PARLΔ77 was incubated with an equimolar mixture of 228 synthetic tetradecapeptides at a final concentration of 0.5 μM for each peptide in 50 mM Tris-HCl pH 7.0, 150 mM NaCl, 10% glycerol, with or without 0.1% DDM. The sequence of each peptide is listed in Supplementary Data File. These peptides have been validated as substrates for a wide variety of proteolytic enzymes (PMID 23023596, 24073241, 25944934) including bacterial rhomboid proteases (30705125). For each assay, 20 μl of the reaction mixture was removed after 0, 60, and 240 min of incubation. Enzyme activity was quenched by adding GuHCl (MP Biomedicals) to a final concentration of 6.4 M, and samples were immediately stored at –80 °C. All samples were desalted using C18 spin columns and dried by vacuum centrifugation.
(§2) Approximately 2 μg of peptides was injected into a Q-Exactive Mass Spectrometer (Thermo) equipped with an Ultimate 3000 HPLC. Peptides were separated by reverse-phase chromatography on a C18 column (1.7 μm bead size, 75 μm × 25 cm, 65 °C) at a flow rate of 300 nl/min using a 60-min linear gradient from 5% to 30% B, with solvent A: 0.1% formic acid in water and solvent B: 0.1% formic acid in acetonitrile. Survey scans were recorded over a 150–2000 m/z range (70,000 resolutions at 200 m/z, AGC target 3 × 10^6, 100 ms maximum). MS/MS was performed in data-dependent acquisition mode with HCD fragmentation (28 normalized collision energy) on the 12 most intense precursor ions (17,500 resolutions at 200 m/z, AGC target 1 × 10^5, 50 ms maximum, dynamic exclusion 20 s).
(§3) Data was processed using PEAKS 8.5 (Bioinformatics Solutions Inc). MS^2 data were searched against the 228 tetradecapeptide library sequences with decoy sequences in reverse order. A precursor tolerance of 20 ppm and 0.01 Da for MS^2 fragments was defined. No protease digestion and modification were specified. Data were filtered to 1% peptide-level false discovery rates with the target-decoy strategy. Peptides were quantified with label-free quantification and data are normalized by medians and filtered by 0.3 peptide quality. Missing and zero values are imputed with random normally distributed numbers in the range of the average of smallest 5% of the data ± SD. Cleaved sequences were defined as peptide products that increase by a fold change of >8 and q value <0.05 (by Student t test) between 0 min and 240 min. IceLogo software was used for visualization of amino-acid frequency surrounding the cleavage sites. Amino acids that were most frequently observed (above axis) and least frequently observed (below axis) from P4 to P4ʹ positions were illustrated. Norleucine (Nle) was represented as “n” in the reported profiles. Mass spectrometry data and searching results have been deposited in MassIVE with accession number, MSV000085295.

PARLΔ77 [2] = molecular target: T1, PARLΔ77; assay: Lipid effect on PARLΔ77 cleavage of FRET-PINK1(70-134); type: biochemical; conditions: vs no lipid, N = 4
Source text: Lipids are known to influence membrane protein function ([29]). In mitochondria, for example, increased CL amounts are observed during mitochondrial stress, which influences protein function at the molecular level ([30]). Therefore, we assessed the effect of the three primary lipids present in the IMM, namely CL, phosphatidylcholine (POPC), and phosphatidylethanolamine (POPE) on PARLΔ77 activity with the FRET-PINK^70–134 substrate (Fig. 1D) ([31]). The lipid-free conditions were used as a baseline and consisted of PARLΔ77 reconstituted in detergent (DDM) micelles, while all lipid conditions consisted of a mixed detergent-lipid micelle system. First we assess the effect of different classes of lipids. […] In order to precisely determine the optimal concentration of CL for PARL activity, the initial velocities of PARL-mediated cleavage of FRET-PINK1^70–134 were measured in the presence of increasing concentrations of CL. […] Therefore, CL was included in all subsequent protein preparations of detergent-solubilized PARL at the last purification step.
Figure S5. The dependence of PA R LΔ77activity on CL concentration. The initial velocities of PA R LΔ77weremeasuredin the presence of different molar ratios of CL using FRET-PINK170-134 substrate. One-way ANOVA with multiple comparisons was performed between the no-lipid condition and each molar ratio of CL:protein to determine if differences observed were significant. A total of five experimental replicates performed in duplicate were used for data analysis (N = 5). Individual data points (black dots) are indicated on the bar graphs, representing the mean ±SEM
(1 picture or pasted object on this page, not shown here)

PARLΔ77 [3] = molecular target: T1, PARLΔ77; assay: Multiplex substrate profiling by mass spectrometry (MSP-MS), PARLΔ77 in DDM; type: biochemical; conditions: PARLΔ77 1 μM, 0.1% DDM, peptides 0.5 μM each, LC-MS/MS, quadruplicate; for FC_60min (fold change of cleavage product, Annotated_Sequence): pH 7.0, 60 vs 0 min; for FC_240min (fold change of cleavage product, Annotated_Sequence): pH 7.0, 240 vs 0 min
Method: as §1, §2, §3

preferred substrates = conditions: cited from earlier work
Method: The bacterial rhomboid proteases from Haemophilus influenzae (HiGlpG) and P. stuartii (AarA) cleave at a rate of roughly two per minute for their preferred substrates in DDM, while the E. coli rhomboid protease GlpG cleaves slowly in DDM, much like PARL, at a rate of approximately six per hour and with a rate of 2.5 min^−1 in PLs ([26], [34], [35]).

[4] = lipid at molar ratio 50:1, mixed detergent (DDM)-lipid micelles

Row | Molecule | FC_60min (fold change of cleavage product, Annotated_Sequence) (PARLΔ77 [1]) | FC_240min (fold change of cleavage product, Annotated_Sequence) (PARLΔ77 [1]) | FC_60min (fold change of cleavage product, Annotated_Sequence) (PARLΔ77 [3]; TDP160: product INDFLVR.T) | FC_240min (fold change of cleavage product, Annotated_Sequence) (PARLΔ77 [3]; TDP160: product INDFLVR.T) | other results
1 | AETSIKVFMPYYGH [TDP91, synthetic tetradecapeptide of the 228-peptide library] | 43.5042 | 295.878 |  |  | 
2 | phosphatidylethanolamine [POPE] |  |  |  |  | effect on PARL activity (PARLΔ77 [2]; [4]): did not significantly increase PARL activity; effect on PARL activity (PARLΔ77 [2]; lipid at molar ratio 100:1, mixed detergent (DDM)-lipid micelles): did not significantly increase PARL activity
3 | INDFLVRTWKMPGL [TDP160, synthetic tetradecapeptide of the 228-peptide library] |  |  | 264.961 | 895.528 | FC_60min (fold change of cleavage product, Annotated_Sequence) (PARLΔ77 [3]; product F.LVRTWKLPGL): 150.552; FC_240min (fold change of cleavage product, Annotated_Sequence) (PARLΔ77 [3]; product F.LVRTWKLPGL): 507.811
4 | AMTDRGWYLAIQAV [TDP15, synthetic tetradecapeptide of the 228-peptide library] |  |  | 247.32 | 689.515 | 
5 | MHSPWTMANFLRGP [TDP94, synthetic tetradecapeptide of the 228-peptide library] | 254.488 | 1890.88 | 682.585 | 2284.43 | 
6 | cardiolipin [CL] |  |  |  |  | effect on PARL activity (PARLΔ77 [2]; [4]): significant increase in PARL activity
7 | QAVRPNGMYWHYLM [TDP216, synthetic tetradecapeptide of the 228-peptide library] | 43.2174 | 200.338 |  |  | 
8 | GQYPMFVKISTTHW [TDP96, synthetic tetradecapeptide of the 228-peptide library] | 35.4935 | 328.605 |  |  | 
9 | NVDWTAPQLIEYLD [TDP138, synthetic tetradecapeptide of the 228-peptide library] | 42.87 | 40.3813 |  |  | 
10 | GPKLTYDFWIQNLP [TDP89, synthetic tetradecapeptide of the 228-peptide library] |  |  | 270.23 | 1077.04 | 
11 | AarA: bacterial rhomboid protease from P. stuartii (protein, UniProt P46116 1-281, looked up) Rhomboid protease AarA: MAEQQNPFSIKSKARFSLGAIALTLTLVLLNIAVYFYQIVFASPLDSRESNLILFGANIYQLSLTGDWWRYPISMMLHSNGTHLAFNCLALFVIGIGCERAYGKFKLLAIYIISGIGAALFSAYWQYYEISNSDLWTDSTVYITIGVGASGAIMGIAAASVIYLIKVVINKPNPHPVIQRRQKYQLYNLIAMIALTLINGLQSGVDNAAHIGGAIIGALISIAYILVPHKLRVANLCITVIAASLLTMMIYLYSFSTNKHLLEEREFIYQEVYTELADANQ |  |  |  |  | cleavage rate (preferred substrates; preferred substrates, in DDM): roughly two
12 | GlpG: E. coli rhomboid protease (protein, UniProt P09391 1-276, looked up) Rhomboid protease GlpG: MLMITSFANPRVAQAFVDYMATQGVILTIQQHNQSDVWLADESQAERVRAELARFLENPADPRYLAASWQAGHTGSGLHYRRYPFFAALRERAGPVTWVMMIACVVVFIAMQILGDQEVMLWLAWPFDPTLKFEFWRYFTHALMHFSLMHILFNLLWWWYLGGAVEKRLGSGKLIVITLISALLSGYVQQKFSGPWFGGLSGVVYALMGYVWLRGERDPQSGIYLQRGLIIFALIWIVAGWFDLFGMSMANGAHIAGLAVGLAMAFVDSLNARKRK |  |  |  |  | cleavage rate (preferred substrates; in DDM): approximately six; cleavage rate (preferred substrates; in PLs): 2.5 min⁻¹
13 | HiGlpG: bacterial rhomboid protease from Haemophilus influenzae (protein, UniProt P44783 1-192, looked up) Rhomboid protease GlpG: MKNFLAQQGKITLILTALCVLIYLAQQLGFEDDIMYLMHYPAYEEQDSEVWRYISHTLVHLSNLHILFNLSWFFIFGGMIERTFGSVKLLMLYVVASAITGYVQNYVSGPAFFGLSGVVYAVLGYVFIRDKLNHHLFDLPEGFFTMLLVGIALGFISPLFGVEMGNAAHISGLIVGLIWGFIDSKLRKNSLE |  |  |  |  | cleavage rate (preferred substrates; preferred substrates, in DDM): roughly two

Source: PMC7966987, “Insights into the catalytic properties of the mitochondrial rhomboid protease PARL” (The Journal of Biological Chemistry, 2021)
